In patent publication US20180215787A1, “Chromogenic And Fluorogenic Peptide Substrates For The Detection Of Serine Protease Activity” (RUPRECHT-KARLS-UNIVERSITÄT HEIDELBERG, priority 2015, published 2018):

Legend:
[1] = cited from earlier work
[2] = target: T1, factor Xa (Bos taurus, UniProt P00743); assay: Kinetic measurements (Michaelis-Menten) of factor Xa substrates; format: biochemical
Protocol: (§1) Commercial substrate 1a, depicted in FIG. 2, was used as reference in the kinetic measurements. The kinetic values KM, kcat and kcat/KM were established for the fluorogenic compound 1 using Human Thrombin. In order to compare the results of 1 and 1a, the absorption of the released chromophores was measured during the enzymatic reaction (570 nm for resorufin and 380 nm for p-nitroaniline).
(§2) The same parameters were also determined for 1 by measuring the emission of resorufin at 583 nm and similar values to the ones obtained from absorption were found (FIG. 5A).
A similar conjugate, with the same peptide sequence, but having p-nitroanilide as reporter, has a much higher KM (40 μM) and the enzyme has poorer catalytic efficiency for this substrate (2.7×10^6 M^−1 s^−1). Thus, compound 2 of the present invention performs better than the best factor Xa substrate so far reported.
The kinetic parameters were determined as described for the other substrates (cf. Example 4). The results of Michaelis-Menten kinetic is depicted in FIG. 13.

[3] = test system: trypsin; assay: Fluorescence specificity assay, trypsin; format: biochemical; conditions: Compound 1 5 μM, trypsin 100 pM
Protocol: (§3) The enzymatic reactions were carried out in 50 mM Tris buffer pH 8.3 and 130 mM NaCl.
(§4) the specificity of Compound 1 of the present invention toward thrombin was tested. Compound 1 (5 μM) was incubated in the presence of thrombin (100 pM) and some possible interfering proteases and proteins, like trypsin, factor Xa, myoglobin, cytochrome C and BSA (100 pM). The increase of fluorescence in response to factor Xa, myoglobin, cytochrome C and BSA was negligible (FIG. 6). […] A commercial assay can detect 1 pM thrombin, by fishing it out of plasma samples using microwells coated with DNA-aptamer. The AMC-based substrate is converted by thrombin to fluorescent product after the enrichment step. The fluorescence assay according to the present invention allowed the detection of thrombin at the concentrations as low as 0.5 pM in water solution (FIG. 7), which was achieved without any enrichment step.

[4] = target: T1, factor Xa; assay: Fluorescence specificity assay, factor Xa; format: biochemical; conditions: Compound 1 5 μM, factor Xa 100 pM
Protocol: as §3, §4

[5] = target: T2, myoglobin (Homo sapiens, UniProt P02144); assay: Fluorescence specificity assay, myoglobin; format: biochemical; conditions: Compound 1 5 μM, myoglobin 100 pM
T2 sequence (P02144 1-154): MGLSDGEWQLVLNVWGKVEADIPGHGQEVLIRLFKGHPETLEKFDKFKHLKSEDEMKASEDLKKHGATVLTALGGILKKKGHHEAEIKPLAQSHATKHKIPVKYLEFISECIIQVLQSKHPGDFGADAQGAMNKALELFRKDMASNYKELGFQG
Protocol: as §3, §4

[6] = target: T3, thrombin (Homo sapiens, UniProt P00734); assay: Kinetic measurements with Human Thrombin; format: biochemical; conditions: absorption of released chromophore, 570 nm
Protocol: as §1, §2

[7] = target: T3, thrombin; assay: Fluorescence assay for determination of thrombin in water (LOD); format: biochemical; conditions: in water solution, without enrichment step
Protocol: The mean change of resorufin fluorescence dF/min is plotted versus the corresponding thrombin concentration (in pM).
as §4

[8] = target: cytochrome C (Homo sapiens, UniProt P99999); assay: Fluorescence specificity assay, cytochrome C; format: biochemical; conditions: Compound 1 5 μM, cytochrome C 100 pM
cytochrome C, sequence (P99999 whole entry, species assumed): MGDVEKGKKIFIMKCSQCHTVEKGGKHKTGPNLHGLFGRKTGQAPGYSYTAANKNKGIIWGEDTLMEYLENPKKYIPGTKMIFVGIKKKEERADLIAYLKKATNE
Protocol: as §3, §4

[9] = target: BSA (Bos taurus, UniProt P02769); assay: Fluorescence specificity assay, BSA; format: biochemical; conditions: Compound 1 5 μM, BSA 100 pM
BSA, sequence (P02769 25-607): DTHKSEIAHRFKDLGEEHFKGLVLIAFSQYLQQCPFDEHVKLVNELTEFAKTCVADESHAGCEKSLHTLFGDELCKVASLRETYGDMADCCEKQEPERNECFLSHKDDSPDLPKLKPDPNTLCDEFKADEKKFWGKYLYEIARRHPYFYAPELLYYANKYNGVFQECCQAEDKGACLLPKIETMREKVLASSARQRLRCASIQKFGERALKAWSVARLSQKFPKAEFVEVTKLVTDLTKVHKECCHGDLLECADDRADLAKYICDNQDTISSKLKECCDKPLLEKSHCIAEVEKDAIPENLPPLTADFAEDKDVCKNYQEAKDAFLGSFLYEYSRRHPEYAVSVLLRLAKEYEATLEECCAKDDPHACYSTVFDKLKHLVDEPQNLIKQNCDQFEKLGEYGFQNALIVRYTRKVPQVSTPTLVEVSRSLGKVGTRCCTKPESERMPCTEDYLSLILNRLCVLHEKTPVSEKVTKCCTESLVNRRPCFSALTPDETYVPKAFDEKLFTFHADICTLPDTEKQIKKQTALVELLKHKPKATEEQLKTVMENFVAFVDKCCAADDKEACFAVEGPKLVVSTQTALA
Protocol: as §3, §4

[10] = Stability toward spontaneous hydrolysis in thrombin buffer; format: physicochemical; conditions: incubation with thrombin buffer (Tris pH 8.3), 24° C.
Protocol: A. Absorption spectra of resorufin and compound 1 of the present invention; B. Enzymatic hydrolysis of 1 (5 μM) in the presence of thrombin (100 pM) with Tris buffer pH 8.3 (λex=570 nm; λem=583 nm) at 24° C.; inset: full emission spectra recorded after 60 min, with and without enzyme; C.
The photophysical properties of compound 1 of the present invention, as well as its enzymatic conversion to fluorescent product resorufin were investigated. […] It also has a negligible emission, if exited either at its maxima (480 nm) or at resorufin maxima (570 nm).

[11] = target: T3, thrombin; assay: Fluorescence assay to evaluate specificity of compound 1 toward thrombin; format: biochemical; conditions: Compound 1 5 μM, proteases 100 pM
Protocol: as §3, §4

[12] = factor Xa substrate, Michaelis-Menten kinetic

T1 sequence (P00743 234-492 limits assumed): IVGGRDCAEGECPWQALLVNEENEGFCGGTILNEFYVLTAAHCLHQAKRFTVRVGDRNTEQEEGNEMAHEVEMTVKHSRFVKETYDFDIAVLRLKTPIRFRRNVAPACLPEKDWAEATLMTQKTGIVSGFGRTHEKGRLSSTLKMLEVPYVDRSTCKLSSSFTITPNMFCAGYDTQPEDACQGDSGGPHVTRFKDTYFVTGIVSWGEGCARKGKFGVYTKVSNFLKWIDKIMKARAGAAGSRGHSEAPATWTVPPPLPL
T1 sequence (P00743 41-180 partner limits assumed): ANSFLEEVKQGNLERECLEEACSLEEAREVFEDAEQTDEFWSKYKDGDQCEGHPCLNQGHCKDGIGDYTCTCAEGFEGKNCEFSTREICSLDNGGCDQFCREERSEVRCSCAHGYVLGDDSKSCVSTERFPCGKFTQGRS

O=c1ccc2nc3ccc(O)cc3oc-2c1 [resorufin, 7-Hydroxy-3H-phenoxazin-3-one]
pKa [1]: ~6.0

Cbz-D-Arg-Gly-Arg-PABA-Res [Compound 2a]
Km [2, 12]: 5.5 µM
kcat [2, 12]: 4.9 s⁻¹

BzIs-D-Arg-Gly-Arg-PABA-Res [Compound 2]
KM value (in words) ([2]; FIG. 5B): very low KM value
catalytic efficiency (in words) ([2]; FIG. 5B): excellent catalytic efficiency
turnover number kcat (in words) ([2]; FIG. 5B): relatively good turnover number

D-Phe-Pro-Arg-PABA-Res [Compound 1]
hydrolysis by trypsin (rate compared to thrombin) [3]: slower rate compared to thrombin
increase of fluorescence in response to factor Xa [4]: negligible
increase of fluorescence in response to myoglobin [5]: negligible
thrombin turnover compared with commercial substrate 1a [6]: did not suffer at all
lowest detectable thrombin concentration [7]: 0.5 pM
increase of fluorescence in response to cytochrome C [8]: negligible
increase of fluorescence in response to BSA [9]: negligible
spontaneous hydrolysis / chemical stability [10]: no spontaneous hydrolysis
specificity for thrombin compared to factor Xa [11]: 400 times
selectivity for thrombin over trypsin ([11]; 50 mM Tris pH 8.3, 130 mM NaCl): 7.5 fold
